Experiment in all cases: kinome screen (33PanQinase)
Holding throughout (type): biochemical

For one experiment, the target named is T1, PRKX (Homo sapiens, UniProt P51817).
T1 construct: purchased Reaction Biology Europe GmbH (formerly ProQinase)
T1 sequence (P51817 1-358): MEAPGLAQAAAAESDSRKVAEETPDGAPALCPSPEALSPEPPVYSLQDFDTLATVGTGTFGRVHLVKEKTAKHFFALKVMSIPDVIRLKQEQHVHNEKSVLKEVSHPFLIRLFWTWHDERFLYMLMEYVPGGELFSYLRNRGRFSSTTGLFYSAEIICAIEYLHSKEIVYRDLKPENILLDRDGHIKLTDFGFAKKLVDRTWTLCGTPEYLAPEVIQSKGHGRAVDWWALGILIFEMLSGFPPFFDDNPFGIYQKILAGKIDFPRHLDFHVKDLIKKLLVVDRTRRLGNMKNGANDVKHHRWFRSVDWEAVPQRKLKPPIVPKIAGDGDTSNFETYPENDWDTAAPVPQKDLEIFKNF
As to the method:
(§1) The Kinome Screening was performed by Reaction Biology Europe GmbH (http://reactionbiology.com; Freiburg i. Br., Germany).

A further experiment deals with T2, VEGFR1 (Homo sapiens, UniProt P17948).
T2 construct: purchased Reaction Biology Europe GmbH (formerly ProQinase)
The procedure: as §1

Another experiment deals with T3, EGFR (Homo sapiens, UniProt P00533).
T3 construct: purchased Reaction Biology Europe GmbH (formerly ProQinase)
The procedure: as §1

The next experiment deals with T4, S6K (Homo sapiens, UniProt P23443).
T4 construct: purchased Reaction Biology Europe GmbH (formerly ProQinase)
The procedure: as §1

A further experiment concerns the target T5, MAP4K5 (Homo sapiens, UniProt Q9Y4K4).
T5 construct: purchased Reaction Biology Europe GmbH (formerly ProQinase)
As to the method: as §1

A further experiment has as its target T6, PAK1 (Homo sapiens, UniProt Q13153).
T6 construct: purchased Reaction Biology Europe GmbH (formerly ProQinase)
The procedure: as §1

In a further experiment the target is T7, PIM1 (Homo sapiens, UniProt P11309).
T7 construct: purchased Reaction Biology Europe GmbH (formerly ProQinase)
As to the method:
as §1

For the next experiment, the target named is T8, IKKα (Homo sapiens, UniProt O15111).
T8 construct: purchased Reaction Biology Europe GmbH (formerly ProQinase)
T8 sequence (O15111 1-745): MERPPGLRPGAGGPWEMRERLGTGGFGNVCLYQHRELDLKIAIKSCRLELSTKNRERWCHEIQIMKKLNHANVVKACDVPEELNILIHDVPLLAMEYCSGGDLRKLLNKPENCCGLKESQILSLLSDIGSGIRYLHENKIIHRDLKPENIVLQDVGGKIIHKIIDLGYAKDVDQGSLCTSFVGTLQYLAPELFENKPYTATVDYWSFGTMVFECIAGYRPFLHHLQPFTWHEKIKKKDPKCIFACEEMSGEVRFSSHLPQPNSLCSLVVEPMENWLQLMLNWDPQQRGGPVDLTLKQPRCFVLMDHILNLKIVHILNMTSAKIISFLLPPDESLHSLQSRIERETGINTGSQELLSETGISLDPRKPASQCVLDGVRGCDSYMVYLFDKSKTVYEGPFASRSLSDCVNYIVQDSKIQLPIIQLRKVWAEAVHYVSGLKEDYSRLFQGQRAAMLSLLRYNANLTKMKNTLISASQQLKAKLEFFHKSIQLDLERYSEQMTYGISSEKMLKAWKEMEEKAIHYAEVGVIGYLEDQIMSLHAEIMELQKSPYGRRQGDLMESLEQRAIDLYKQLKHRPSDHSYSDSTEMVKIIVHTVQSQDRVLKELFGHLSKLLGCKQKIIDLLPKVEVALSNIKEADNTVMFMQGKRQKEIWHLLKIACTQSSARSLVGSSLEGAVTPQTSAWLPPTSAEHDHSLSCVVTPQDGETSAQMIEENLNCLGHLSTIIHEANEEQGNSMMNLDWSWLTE
The procedure:
as §1

In a further experiment the target is T9, BRAF (Homo sapiens, UniProt P15056).
T9 construct: purchased Reaction Biology Europe GmbH (formerly ProQinase)
As to the method:
as §1

A further experiment has as its target T10, WNK1 (Homo sapiens, UniProt Q9H4A3).
T10 construct: purchased Reaction Biology Europe GmbH (formerly ProQinase)
The procedure: as §1

Another experiment deals with T11, PKMYT1 (Homo sapiens, UniProt Q99640).
T11 construct: purchased Reaction Biology Europe GmbH (formerly ProQinase)
T11 sequence (Q99640 1-499): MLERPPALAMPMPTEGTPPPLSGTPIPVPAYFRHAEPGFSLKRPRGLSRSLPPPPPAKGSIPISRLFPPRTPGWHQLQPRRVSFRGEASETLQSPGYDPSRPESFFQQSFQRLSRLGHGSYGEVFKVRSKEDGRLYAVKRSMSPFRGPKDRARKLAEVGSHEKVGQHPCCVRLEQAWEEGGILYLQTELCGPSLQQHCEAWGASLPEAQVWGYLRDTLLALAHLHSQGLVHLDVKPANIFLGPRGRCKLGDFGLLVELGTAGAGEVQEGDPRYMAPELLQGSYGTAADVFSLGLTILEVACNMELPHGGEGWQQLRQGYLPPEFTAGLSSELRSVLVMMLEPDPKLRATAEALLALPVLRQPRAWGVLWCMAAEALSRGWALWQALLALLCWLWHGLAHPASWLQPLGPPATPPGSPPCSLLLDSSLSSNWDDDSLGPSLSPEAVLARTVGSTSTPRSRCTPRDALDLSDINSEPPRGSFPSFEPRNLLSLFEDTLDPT
As to the method: as §1

Our source for the residual kinase activity values is paper PMC11167047 (Cell Death Discovery, 2024).

T10 sequence (Q9H4A3 whole entry): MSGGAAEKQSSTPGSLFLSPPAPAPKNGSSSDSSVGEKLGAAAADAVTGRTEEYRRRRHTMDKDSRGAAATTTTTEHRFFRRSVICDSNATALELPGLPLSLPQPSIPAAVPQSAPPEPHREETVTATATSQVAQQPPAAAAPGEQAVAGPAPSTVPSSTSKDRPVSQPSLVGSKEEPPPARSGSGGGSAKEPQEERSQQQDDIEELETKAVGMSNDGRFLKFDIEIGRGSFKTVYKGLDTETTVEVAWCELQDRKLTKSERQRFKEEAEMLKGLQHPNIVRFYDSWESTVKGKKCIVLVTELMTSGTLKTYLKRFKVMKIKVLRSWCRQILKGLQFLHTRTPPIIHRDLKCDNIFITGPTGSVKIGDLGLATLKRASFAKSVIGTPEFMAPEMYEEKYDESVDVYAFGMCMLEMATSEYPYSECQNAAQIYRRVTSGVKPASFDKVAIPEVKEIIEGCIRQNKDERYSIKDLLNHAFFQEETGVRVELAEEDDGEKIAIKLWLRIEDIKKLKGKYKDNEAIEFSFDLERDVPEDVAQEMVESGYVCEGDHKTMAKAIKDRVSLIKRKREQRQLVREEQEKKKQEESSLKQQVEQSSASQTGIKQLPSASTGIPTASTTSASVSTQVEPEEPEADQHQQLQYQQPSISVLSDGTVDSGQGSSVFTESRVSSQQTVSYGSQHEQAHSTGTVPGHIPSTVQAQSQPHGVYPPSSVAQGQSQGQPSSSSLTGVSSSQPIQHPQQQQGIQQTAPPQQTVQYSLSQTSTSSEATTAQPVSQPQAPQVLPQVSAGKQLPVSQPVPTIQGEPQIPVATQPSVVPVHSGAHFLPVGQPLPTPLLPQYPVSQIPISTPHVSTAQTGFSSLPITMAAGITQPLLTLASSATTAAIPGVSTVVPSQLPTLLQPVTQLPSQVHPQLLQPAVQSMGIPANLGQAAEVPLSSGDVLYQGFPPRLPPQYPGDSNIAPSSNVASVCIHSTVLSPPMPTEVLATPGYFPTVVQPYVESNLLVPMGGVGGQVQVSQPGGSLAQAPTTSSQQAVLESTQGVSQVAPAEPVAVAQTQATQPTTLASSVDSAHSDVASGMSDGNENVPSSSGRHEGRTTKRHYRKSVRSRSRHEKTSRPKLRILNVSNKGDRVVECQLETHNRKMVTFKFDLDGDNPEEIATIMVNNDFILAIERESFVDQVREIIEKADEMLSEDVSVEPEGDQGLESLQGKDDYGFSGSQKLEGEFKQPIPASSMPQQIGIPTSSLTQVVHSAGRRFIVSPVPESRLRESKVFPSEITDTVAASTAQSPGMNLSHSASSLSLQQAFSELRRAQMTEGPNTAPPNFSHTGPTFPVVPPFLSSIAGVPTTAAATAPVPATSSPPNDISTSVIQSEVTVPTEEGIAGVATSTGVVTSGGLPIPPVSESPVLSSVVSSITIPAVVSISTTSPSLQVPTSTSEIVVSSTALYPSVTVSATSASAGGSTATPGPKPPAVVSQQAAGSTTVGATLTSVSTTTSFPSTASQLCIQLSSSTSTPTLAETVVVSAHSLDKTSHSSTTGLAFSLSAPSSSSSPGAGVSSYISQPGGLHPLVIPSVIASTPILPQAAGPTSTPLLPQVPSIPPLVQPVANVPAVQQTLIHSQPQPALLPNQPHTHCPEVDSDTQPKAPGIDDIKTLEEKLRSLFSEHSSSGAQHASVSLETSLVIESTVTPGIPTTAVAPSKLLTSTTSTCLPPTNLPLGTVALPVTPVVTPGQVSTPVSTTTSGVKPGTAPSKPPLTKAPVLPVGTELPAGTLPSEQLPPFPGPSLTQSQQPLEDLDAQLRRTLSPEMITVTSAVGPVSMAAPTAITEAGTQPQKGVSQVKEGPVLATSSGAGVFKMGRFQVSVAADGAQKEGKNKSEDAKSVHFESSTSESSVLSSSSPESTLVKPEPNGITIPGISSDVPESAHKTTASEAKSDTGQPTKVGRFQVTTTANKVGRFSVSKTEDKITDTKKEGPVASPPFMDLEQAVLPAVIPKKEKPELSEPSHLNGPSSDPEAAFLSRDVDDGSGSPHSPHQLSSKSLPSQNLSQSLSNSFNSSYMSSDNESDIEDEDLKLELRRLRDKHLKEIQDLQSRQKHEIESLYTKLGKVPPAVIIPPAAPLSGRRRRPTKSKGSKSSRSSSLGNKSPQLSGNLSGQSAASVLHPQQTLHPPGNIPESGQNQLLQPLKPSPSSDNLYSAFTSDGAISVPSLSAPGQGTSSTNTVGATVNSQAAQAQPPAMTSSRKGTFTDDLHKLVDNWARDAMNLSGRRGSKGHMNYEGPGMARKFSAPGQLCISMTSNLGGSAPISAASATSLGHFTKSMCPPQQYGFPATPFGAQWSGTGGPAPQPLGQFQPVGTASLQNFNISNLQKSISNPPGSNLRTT
T5 sequence (Q9Y4K4 whole entry): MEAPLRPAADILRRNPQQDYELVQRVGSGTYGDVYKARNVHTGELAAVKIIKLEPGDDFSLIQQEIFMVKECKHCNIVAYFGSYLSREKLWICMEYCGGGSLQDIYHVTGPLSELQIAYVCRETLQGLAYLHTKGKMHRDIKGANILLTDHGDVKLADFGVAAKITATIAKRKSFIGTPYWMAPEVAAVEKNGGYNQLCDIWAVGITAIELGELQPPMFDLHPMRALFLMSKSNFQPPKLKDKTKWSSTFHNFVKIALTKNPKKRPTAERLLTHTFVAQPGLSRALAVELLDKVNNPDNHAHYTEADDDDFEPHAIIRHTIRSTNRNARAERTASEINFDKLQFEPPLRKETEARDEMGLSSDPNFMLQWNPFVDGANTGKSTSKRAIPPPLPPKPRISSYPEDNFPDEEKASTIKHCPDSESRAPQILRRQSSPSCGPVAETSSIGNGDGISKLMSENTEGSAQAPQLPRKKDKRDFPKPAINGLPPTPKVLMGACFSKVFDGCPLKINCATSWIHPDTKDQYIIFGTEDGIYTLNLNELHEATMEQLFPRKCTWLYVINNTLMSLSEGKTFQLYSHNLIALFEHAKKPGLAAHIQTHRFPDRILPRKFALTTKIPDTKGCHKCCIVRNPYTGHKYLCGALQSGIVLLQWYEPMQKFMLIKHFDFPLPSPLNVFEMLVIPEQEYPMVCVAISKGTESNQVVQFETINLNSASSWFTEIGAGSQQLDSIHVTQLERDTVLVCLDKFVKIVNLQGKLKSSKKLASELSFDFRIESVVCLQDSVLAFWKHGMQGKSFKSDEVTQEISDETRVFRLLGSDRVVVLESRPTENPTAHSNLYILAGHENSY
T7 sequence (P11309 whole entry): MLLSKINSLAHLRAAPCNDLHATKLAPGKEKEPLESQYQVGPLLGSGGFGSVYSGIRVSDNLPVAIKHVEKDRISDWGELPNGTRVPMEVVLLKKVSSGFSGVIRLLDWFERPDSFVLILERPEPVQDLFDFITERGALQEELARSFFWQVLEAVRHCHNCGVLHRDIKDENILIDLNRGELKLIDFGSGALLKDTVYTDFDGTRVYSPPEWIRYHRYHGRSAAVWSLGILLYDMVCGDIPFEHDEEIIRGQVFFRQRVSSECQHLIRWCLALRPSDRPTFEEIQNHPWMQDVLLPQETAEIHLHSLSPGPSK
T3 sequence (P00533 25-1210): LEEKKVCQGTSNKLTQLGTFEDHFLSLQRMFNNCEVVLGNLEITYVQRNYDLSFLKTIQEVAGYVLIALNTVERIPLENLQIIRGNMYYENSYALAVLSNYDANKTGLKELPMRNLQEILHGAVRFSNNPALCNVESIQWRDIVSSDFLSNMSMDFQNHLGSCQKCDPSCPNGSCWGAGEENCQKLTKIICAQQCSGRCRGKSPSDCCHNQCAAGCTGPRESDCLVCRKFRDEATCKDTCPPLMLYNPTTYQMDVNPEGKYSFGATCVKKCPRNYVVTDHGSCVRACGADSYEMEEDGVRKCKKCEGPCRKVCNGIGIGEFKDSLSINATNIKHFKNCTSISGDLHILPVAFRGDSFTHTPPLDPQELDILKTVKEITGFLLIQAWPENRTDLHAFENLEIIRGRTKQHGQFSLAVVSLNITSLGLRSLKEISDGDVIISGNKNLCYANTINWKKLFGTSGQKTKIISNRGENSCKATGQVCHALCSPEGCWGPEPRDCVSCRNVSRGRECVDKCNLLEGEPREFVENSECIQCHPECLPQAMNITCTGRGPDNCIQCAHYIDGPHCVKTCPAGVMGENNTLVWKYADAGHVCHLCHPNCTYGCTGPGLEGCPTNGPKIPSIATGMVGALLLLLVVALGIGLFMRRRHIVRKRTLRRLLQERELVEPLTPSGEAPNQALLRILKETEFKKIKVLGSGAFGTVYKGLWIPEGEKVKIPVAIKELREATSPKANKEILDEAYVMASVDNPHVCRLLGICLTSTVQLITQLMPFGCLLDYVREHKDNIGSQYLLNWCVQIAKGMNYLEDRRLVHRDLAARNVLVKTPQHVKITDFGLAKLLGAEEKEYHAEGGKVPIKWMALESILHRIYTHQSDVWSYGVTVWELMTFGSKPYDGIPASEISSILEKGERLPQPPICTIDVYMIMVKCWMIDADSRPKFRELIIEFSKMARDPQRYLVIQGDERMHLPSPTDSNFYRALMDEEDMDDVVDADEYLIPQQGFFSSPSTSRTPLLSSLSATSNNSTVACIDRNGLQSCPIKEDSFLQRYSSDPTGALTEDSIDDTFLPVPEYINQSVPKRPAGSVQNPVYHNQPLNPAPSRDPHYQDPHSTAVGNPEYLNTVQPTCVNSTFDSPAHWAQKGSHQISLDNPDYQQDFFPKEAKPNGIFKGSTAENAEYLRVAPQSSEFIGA

Consider `COc1ccnc2[nH]cc(-c3cc(N)nc(N)c3)c12` [meriolin 16], for which the residual kinase activity on PRKX (0.03 µM) was 54 % of control; at PRKX (0.3 µM), 3 % of control; on VEGFR1 (0.03 µM), 110 % of control; at VEGFR1 (0.3 µM), 89 % of control; on EGFR (0.03 µM), 109 % of control; at EGFR (0.3 µM), 90 % of control. In addition, the residual kinase activity on S6K (0.03 µM) is 99 % of control; at S6K (0.3 µM), 84 % of control; on MAP4K5 (0.03 µM) it was 87 % of control; at MAP4K5 (0.3 µM), 52 % of control; on PAK1 (0.03 µM), 106 % of control; at PAK1 (0.3 µM), 98 % of control. Further, the residual kinase activity on PIM1 (0.03 µM) was 77 % of control; on PIM1 (0.3 µM), 40 % of control; at IKKα (0.03 µM), 27 % of control; at IKKα (0.3 µM) it was 16 % of control; at BRAF (0.03 µM), 94 % of control; on WNK1 (0.03 µM) it was 101 % of control. The residual kinase activity on WNK1 (0.3 µM) is 100 % of control; at PKMYT1 (0.03 µM), 32 % of control; on PKMYT1 (0.3 µM), 23 % of control.
Take `c1ccc(CNc2cc(-c3c[nH]c4ncccc34)ccn2)cc1` [meriolin 36]: the residual kinase activity on PRKX (0.3 µM) is reported as 15 % of control; at PRKX (3 µM) it was -1 % of control; at VEGFR1 (0.3 µM), 83 % of control; at VEGFR1 (3 µM), 43 % of control; on EGFR (0.3 µM), 107 % of control; at EGFR (3 µM) it was 53 % of control. In addition, the residual kinase activity at S6K (0.3 µM) is listed as 82 % of control; at S6K (3 µM) it was 37 % of control; on MAP4K5 (0.3 µM) it was 3 % of control; at MAP4K5 (3 µM) it was 0 % of control; at PAK1 (0.3 µM) it was 85 % of control; on PAK1 (3 µM) it was 76 % of control. Also, the residual kinase activity on PIM1 (0.3 µM) is 55 % of control; at PIM1 (3 µM), 14 % of control; on IKKα (0.3 µM), 37 % of control; on IKKα (3 µM) it was 13 % of control; on BRAF (0.3 µM) it was 66 % of control; on BRAF (3 µM) it was 50 % of control. The residual kinase activity is listed as 107 % of control at WNK1 (0.3 µM), 98 % of control at WNK1 (3 µM), 39 % of control at PKMYT1 (0.3 µM) and 13 % of control on PKMYT1 (3 µM).
